Entries after “also recorded” stand apart in the source; their conditions may differ.
Legend:
Assay type in all cases: physicochemical
[1] = Tablet friability, Vanderkamp Friabulator (100 rotations/4 minutes)
Description: Friability is a standard test known to one skilled in the art. Friability is measured under standardized conditions by weighing out a certain number of tablets (generally 20 tablets or less), placing them in a rotating Plexiglas drum in which they are lifted during replicate revolutions by a radial lever, and then dropped approximately 8 inches. After replicate revolutions (typically 100 revolutions at 25 rpm), the tablets are reweighed and the percentage of formulation abraded or chipped is calculated. The friability of the tablets, of the present invention, is preferably in the range of about 0% to 3%, and values about 1%, or less, are considered acceptable for most drug and food tablet contexts. Friability which approaches 0% is particularly preferred.
(§1) All four formulations were compressed on the compaction simulator using either 0.344″×0.688″ oval tooling, or ½″ standard round concave (SRC) tooling. The tablets were tested for hardness (kP scale), using a Schleuniger hardness tablet tester (Dr. Schleuniger Pharmatron AG, Solothurn, Switzerland), and for friability (100 rotations/4 minutes) using a Vanderkamp Friabulator Tablet Tester (Vankel, Cary, N.C., US).

[2] = Slug (compact) hardness, Schleuniger hardness tablet tester
From the text: A compaction simulator was used to compress the blends. The compaction simulator was designed as a single station tablet press in which the compression dwell time can be adjusted to simulate different types of tablet presses. All the formulations were slugged on the compaction simulator configured as the Kilian RX-67 press with a dwell time of 0.3145 seconds using […] round flat face tooling. The slugs were then comminuted using a Fitz mill with a 0.125″ screen with knives forward and run at slow speed. […] The slugs were tested for hardness (kP scale), using a Schleuniger hardness tablet tester (Dr. Schleuniger Pharmatron AG, Solothurn, Switzerland).

[3] = Tablet friability, Vanderkamp Friabulator (100 rotations/4 minutes); conditions: Table 4D; high drug loading; diluent DCP, dihyd.; modified capsule shape
[4] = Tablet hardness, Schleuniger hardness tablet tester
Description: as §1

[5] = Indices of tableting performance (Hiestand) of bulk azithromycin; conditions: forms N, M, G, A milled, F and J unmilled
Description: Indices of tableting performance, for several azithromycin forms, were assessed to identify any mechanical deficiencies or attributes that may affect tablet formulation for these azithromycin forms. This assessment was performed in accordance with the procedures described in “Indices of Tableting, Performance” […] and D. P. Smith, Powder Technology 38 [1984] pp. 145-159. Specifically, the Brittle Fracture Index, BFI, was calculated from the ratio of a material's regular tensile strength to its compromised tensile strength. Strain Index, SI, was determined from the dynamic indentation hardness test. Worst Case Bonding Index was determined by assessing the extent of particle bonding remaining after decompression assuming a very short compression dwell time and a plastic mechanism of particle separation during decompression. Tableting Indices were determined for bulk azithromycin lots of six different crystalline forms, specifically forms N, M, G, A, F and J. Forms N, M and G were milled with a Fitzmill (Model JT, The Fitzpatrick Co., Elmhurst, Ill.) using a 0.027'' screen and knives at high speed in an attempt to match the smaller particle size of milled Form A. Unmilled forms F and J were evaluated “as is” due to their relatively small particle sizes.

[6] = Tablet disintegration time, Automatic Disintegration Tester; conditions: Table 2A; Long blend; Oval tooling; distilled water at 37° C.
Description: The disintegration time was determined in distilled water at 37° C. using an Automatic Disintegration Tester (Model ZT72, Erweka USA Inc, Milford, Conn.) for the long blend tablets. Even with extensive blending times with magnesium stearate, reasonably short disintegration times of 15 and 20 seconds were obtained.

[7] = Tablet hardness, Schleuniger hardness tablet tester; remark: listed apart in the source
[8] = Table 2B Run 4, Short blend, Oval tooling, compression force 12 kN
[9] = Table 2B Run 5, Short blend, Oval tooling, compression force 18.7 kN
[10] = Table 3D, high drug loading (58.2 wt % azithromycin), DCP anhydrous, modified capsule shape tablets, target weight 450 mg
[11] = Table 4C, low drug loading, diluent DCP, anhyd., Oval tooling
[12] = Table 4C, low drug loading, diluent DCP, anhyd., SRC (½″) tooling
[13] = Table 4C, low drug loading, diluent DCP, dihyd., Oval tooling
[14] = Table 4C, low drug loading, diluent DCP, dihyd., SRC (½″) tooling
[15] = Table 4D, high drug loading, diluent DCP, anhyd., modified capsule shape

CC[C@H]1OC(=O)[C@H](C)[C@@H](O[C@H]2C[C@@](C)(OC)[C@@H](O)[C@H](C)O2)[C@H](C)[C@@H](O[C@@H]2O[C@H](C)C[C@H](N(C)C)[C@H]2O)[C@](C)(O)C[C@@H](C)CN(C)[C@H](C)[C@@H](O)[C@]1(C)O [Form A, azithromycin dihydrate, reference compound]
Friability ([1]; Table 2A, 35.2 wt % azithromycin, DCP anhydrous, Long blend, Oval tooling): 2 of 5 | Friability ([1]; Table 2A, 35.2 wt % azithromycin, DCP anhydrous, Long blend, ½″ SRC tooling): 1.30% | Friability [1, 8]: capped | Friability [1, 9]: capped | Friability ([1]; Table 3C, low drug loading (35.2 wt % azithromycin), DCP anhydrous, oval tablets, target weight 750 mg, dihydrate): broke during friability testing; also recorded: Broken | Friability [1, 10]: 0.50% | Friability [1, 11]: Broken | Friability [1, 12]: 1.30% | Friability [1, 13]: Broken | Friability [1, 14]: 0.94% | Friability [1, 15]: 0.50% | Avg Slug Hardness ([2]; 35.2 wt % azithromycin, dicalcium phosphate anhydrous diluent, Long blend method): 13.4 kP | Avg Slug Hardness ([2]; 35.2 wt % azithromycin, dicalcium phosphate anhydrous diluent, Short blend method): 13.7 kP | Avg Slug Hardness ([2]; Table 3A, low drug loading: 35.2 wt % azithromycin, 54.8 wt % dicalcium phosphate anhydrous, long blend): 13 kP | Avg Slug Hardness ([2]; Table 3B, high drug loading: 58.2 wt % azithromycin, 31.8 wt % dicalcium phosphate anhydrous, long blend): 12 kP | Avg Slug Hardness ([2]; Table 4A, low drug loading (35.2 wt % azithromycin), diluent DCP, anhyd.): 13 kP | Avg Slug Hardness ([2]; Table 4A, low drug loading (35.2 wt % azithromycin), diluent DCP, dihyd.): 11 kP | Avg Slug Hardness ([2]; Table 4B, high drug loading (58.2 wt % azithromycin), diluent DCP, anhyd.): 12 kP | Avg Slug Hardness ([2]; Table 4B, high drug loading (58.2 wt % azithromycin), diluent DCP, dihyd.): 10 kP | Friability [3]: 0.49% | Avg Tablet Hardness ([4]; Table 2A, 35.2 wt % azithromycin, DCP anhydrous, Long blend, Oval tooling, compression force 13.5 kN (A), 19 kN (F)): 9.0 kP | Avg Tab Hardness [4, 8]: 6.8 kP | Avg Tablet Hardness [4, 11]: 9.0 kP | Avg Tablet Hardness [4, 14]: 6.2 kP | Brittle Fracture Index (BFI) [5]: 0.10 | Strain Index (SI) ([5]; dihydrate): 0.0044 | Tensile Strength ([5]; dihydrate): 0.99 Mpa | Worst Case Bonding Index (BIw) × 10^2 ([5]; dihydrate): 0.9 | Mean disintegration Time [6]: 15 s | Avg Tablet Hardness ([7]; Table 2A, 35.2 wt % azithromycin, DCP anhydrous, Long blend, ½″ SRC tooling, 9.6 kN): 5.8 kP | Avg Tab Hardness [7, 9]: 8.2 kP | Avg Hardness ([7]; Table 3C, low drug loading (35.2 wt % azithromycin), DCP anhydrous, oval tablets, target weight 750 mg): 9.0 kP | Avg Hardness [7, 10]: 6.2 kP | Avg Tablet Hardness [7, 12]: 5.8 kP | Avg Tablet Hardness [7, 13]: 6.8 kP | Avg Tablet Hardness [7, 15]: 6.2 kP | Avg Tablet Hardness ([7]; Table 4D, high drug loading, diluent DCP, dihyd., modified capsule shape): 5.2 kP
